The results in this text go back to PMC9189214 (Poultry Science, 2022).

A short description of data set [1]: Cell viability used to select the allicin concentration. As to conditions: dog, MDCK-chAbcb1 or MDCK-chAbcg2 cells. The data set is classed as cell-based.
A further data set has as its system chicken BCRP. The experiment in a line: Bidirectional transport experiment in MDCK-chAbcg2 cells. Format: in vitro ADME. The note with it: net efflux ratio (NER), florfenicol 20 μM, without allicin.
The nature of data set [2]: Pharmacokinetic analyses of sulfadiazine and florfenicol in broilers. Format: in vivo. The note with it: florfenicol 20 mg/kg oral, 4-wk broilers.

As usually defined, the viability is a read-out of living cells in per cent, often relative to untreated cells. A high value points to better survival. `C=CCS[S+]([O-])CC=C` (stereo not drawn) [allicin, Allicin] yielded a viability at 5 μM in data set [1] of more than 90%.
As a reminder, the efflux ratio is a quotient of directional permeabilities that is used to spot active efflux. Consider `CS(=O)(=O)c1ccc([C@@H](O)[C@@H](CF)NC(=O)C(Cl)Cl)cc1` [florfenicol], for which the efflux ratio at 20 μM in the data set with chicken BCRP was more than 2. In data set [2] (Allicin (32 mg/kg) for 4 wk), this compound came in with a CLz of 18.8 ± 8 mL/min/kg and a Vz of 7.61 ± 2.89 L/kg. For the same compound, in data set [2] (Control (no allicin)), the CLz was 25.2 ± 8.17 mL/min/kg and the Vz stood at 8.57 ± 3.90 L/kg.
